From ChEMBL document CHEMBL3425423, “Hydroxy tricyclic 1,5-naphthyridinone oxabicyclooctane-linked novel bacterial topoisomerase inhibitors as broad-spectrum antibacterial agents-SAR of RHS moiety (Part-3)” (Bioorg Med Chem Lett, 2015) come the findings set out here.

Converted amounts (≈) assume the structure as drawn.

Common to all, as to assay type: functional
Experiment [1] deals with Enterococcus faecium. The experiment in a line: Antibacterial activity against VanA-type vancomycin-resistant Enterococcus faecium A2373. The conditions noted are these: Enterococcus faecium, A2373; read-out: MIC.
Experiment [2] deals with Staphylococcus aureus. Nature of the experiment: Antibacterial activity against Staphylococcus aureus Smith.
For experiment [3], the system named is Acinetobacter baumannii. The experiment in a line: Antibacterial activity against Acinetobacter baumannii IID876. The conditions noted are these: Acinetobacter baumannii, IID876; read-out: MIC.
Experiment [4] has as its system Streptococcus pneumoniae. Nature of the experiment: Antibacterial activity against Streptococcus pneumoniae IID554. The following applies: Streptococcus pneumoniae, IID554; read-out: MIC.
Experiment [5] relates to Enterococcus faecalis. The experiment in a line: Antibacterial activity against Enterococcus faecalis ATCC 29212. The following applies: Enterococcus faecalis, ATCC 29212; read-out: MIC.
In experiment [6] the test system is Escherichia coli. Nature of the experiment: Antibacterial activity against Escherichia coli ATCC 25922. The conditions noted are these: Escherichia coli, ATCC 25922; read-out: MIC.
For experiment [7], the system named is Staphylococcus aureus. The experiment in a line: Ratio of MIC for quinolone-resistant Staphylococcus aureus MS5935 to MIC for quinolone-sensitive Staphylococcus aureus.
Experiment [8] concerns Pseudomonas aeruginosa. The experiment in a line: Antibacterial activity against Pseudomonas aeruginosa PAO1. The following applies: Pseudomonas aeruginosa, PAO1; read-out: MIC.
Where [9] appears, read: Staphylococcus aureus, Smith, read-out: MIC.

Turning to `O=c1cnc2ccc(CNC34CCC(C[C@]5(O)Cn6c(=O)ccc7ncc(F)c5c76)(CC3)OC4)nc2[nH]1`, the MIC in experiment [1] is 32 µg/mL (≈ 63.4 µM); in experiment [2] (setting [9]), 8 µg/mL (≈ 15.9 µM); in experiment [3] it was 32 µg/mL (≈ 63.4 µM); in experiment [4] it was 16 µg/mL (≈ 31.7 µM); in experiment [5] it was 32 µg/mL (≈ 63.4 µM); in experiment [6], 32 µg/mL (≈ 63.4 µM). Also, the MIC in experiment [8] is 32 µg/mL (≈ 63.4 µM). For the same molecule, the Ratio in experiment [7] is under 4.
With `O=c1ccc2ncc(F)c3c2n1C[C@@]3(O)CC12CCC(NCCCc3cc(F)ccc3F)(CC1)CO2`, the MIC in experiment [1] was 32 µg/mL (≈ 64.1 µM); in experiment [2] (setting [9]), 0.5 µg/mL (≈ 1 µM); in experiment [3] it was 2 µg/mL (≈ 4 µM); in experiment [4], 1 µg/mL (≈ 2 µM); in experiment [5] it was 16 µg/mL (≈ 32 µM); in experiment [6] it was 16 µg/mL (≈ 32 µM). Also, the MIC in experiment [8] is 32 µg/mL (≈ 64.1 µM). Moreover, in experiment [7], the Ratio was under 4.
Regarding `COc1ccc2nc(CNC34CCC(C[C@]5(O)Cn6c(=O)ccc7ncc(F)c5c76)(CC3)OC4)c(F)cc2n1`, the MIC in experiment [1], in experiment [2] (setting [9]), in experiment [3], in experiment [4], in experiment [5] and in experiment [6] was 16 µg/mL (≈ 29.9 µM) each time. Further, the minimal inhibitory concentration (MIC) in experiment [8] amounted to 16 µg/mL (≈ 29.9 µM). Besides, the Ratio in experiment [7] was under 4.
`CN1CCOc2nc(CNC34CCC(C[C@]5(O)Cn6c(=O)ccc7ncc(F)c5c76)(CC3)OC4)ccc21`: the MIC amounted to 16 µg/mL (≈ 31.5 µM) in experiment [1]; 2 µg/mL (≈ 3.94 µM) in experiment [2] (setting [9]); 16 µg/mL (≈ 31.5 µM) in experiment [3]; 4 µg/mL (≈ 7.88 µM) in experiment [4]; 16 µg/mL (≈ 31.5 µM) in experiment [5]; 16 µg/mL (≈ 31.5 µM) in experiment [6]. Besides, the MIC in experiment [8] stood at 16 µg/mL (≈ 31.5 µM). The Ratio in experiment [7] is on record as under 4.
As to `O=c1[nH]c2c(F)ccc(F)c2cc1CNC12CCC(C[C@]3(O)Cn4c(=O)ccc5ncc(F)c3c54)(CC1)OC2`, the MIC in experiment [1] turned out to be 64 µg/mL (≈ 119 µM); in experiment [2] (setting [9]), 2 µg/mL (≈ 3.71 µM); in experiment [3] it was 64 µg/mL (≈ 119 µM); in experiment [4] it was 2 µg/mL (≈ 3.71 µM); in experiment [5] it was 32 µg/mL (≈ 59.4 µM); in experiment [6] it was 64 µg/mL (≈ 119 µM). Further, the minimal inhibitory concentration (MIC) in experiment [8] came to 64 µg/mL (≈ 119 µM). The Ratio in experiment [7] is under 4.
For the molecule `O=c1ccc2ncc(F)c3c2n1C[C@@]3(O)CC12CCC(NC/C=C/c3cc(F)ccc3F)(CC1)CO2`, the MIC in experiment [1] was determined as 8 µg/mL (≈ 16.1 µM); in experiment [2] (setting [9]), 0.063 µg/mL (≈ 0.127 µM); in experiment [3] it was 0.25 µg/mL (≈ 0.502 µM); in experiment [4] it was 0.25 µg/mL (≈ 0.502 µM); in experiment [5] it was 4 µg/mL (≈ 8.04 µM); in experiment [6], 4 µg/mL (≈ 8.04 µM). Also, in experiment [8], the minimum inhibitory concentration (MIC) turned out to be 8 µg/mL (≈ 16.1 µM). For the same molecule, the Ratio in experiment [7] is given as under 4.
With `O=c1ccc2ncc(F)c3c2n1C[C@@]3(O)CC12CCC(NC/C=C/c3c(F)cccc3F)(CC1)CO2`, the MIC came out at 8 µg/mL (≈ 16.1 µM) in experiment [1]; 0.063 µg/mL (≈ 0.127 µM) in experiment [2] (setting [9]); 2 µg/mL (≈ 4.02 µM) in experiment [3]; 0.25 µg/mL (≈ 0.502 µM) in experiment [4]; 4 µg/mL (≈ 8.04 µM) in experiment [5]; 16 µg/mL (≈ 32.2 µM) in experiment [6]. Also, the MIC in experiment [8] was determined as 32 µg/mL (≈ 64.3 µM). The Ratio in experiment [7] is under 4.
For `O=C1COc2ccc(C(=O)NC34CCC(C[C@]5(O)Cn6c(=O)ccc7ncc(F)c5c76)(CC3)OC4)nc2N1`, the MIC in experiment [1] stood at 16 µg/mL (≈ 30.7 µM); in experiment [2] it was 0.25 µg/mL (≈ 0.479 µM); in experiment [2] (setting [9]), 1 µg/mL (≈ 1.92 µM); in experiment [3], 16 µg/mL (≈ 30.7 µM); in experiment [4], 4 µg/mL (≈ 7.67 µM); in experiment [5] it was 8 µg/mL (≈ 15.3 µM). The MIC in experiment [6] and in experiment [8] was 32 µg/mL (≈ 61.4 µM) in each case. Moreover, in experiment [7], the Ratio is reported as under 4.
As to `O=c1ccc2ncc(F)c3c2n1C[C@@]3(O)CC12CCC(NCOc3cc(F)ccc3F)(CC1)CO2`, the minimal inhibitory concentration (MIC) is 32 µg/mL (≈ 65.6 µM) in experiment [1]; 1 µg/mL (≈ 2.05 µM) in experiment [2] (setting [9]); 4 µg/mL (≈ 8.21 µM) in experiment [3]; 2 µg/mL (≈ 4.1 µM) in experiment [4]; 16 µg/mL (≈ 32.8 µM) in experiment [5]; 32 µg/mL (≈ 65.6 µM) in experiment [6]. In addition, in experiment [8], the MIC was 64 µg/mL (≈ 131 µM). The Ratio in experiment [7] was under 4.
